Measurements taken from paper PMC8904451, “Novel chalcone-derived pyrazoles as potential therapeutic agents for the treatment of non-small cell lung cancer” (Scientific Reports, 2022).

Columns and labels:
H226 cells = assay: MTT cell viability assay, H226; assay type: cell-based, human
Protocol: All the synthesized chalcone-derived pyrazoles were evaluated for their antiproliferative activity against three human non-small cell lung cancer cell lines: A-549, H226, and H460, and a nonmalignant human embryonic kidney cell line HEK293. Cisplatin and 5-fluorouracil (5-FU) were used as a reference. Cells were exposed to a range of PCH concentrations (0.5–100 µM) for 72 h and analyzed by 3-(4,5-dimethylthiazol-2-yl)-2,5-diphenyl-2H-tetrazolium bromide (MTT) assay. The results of the studies are expressed as the IC50 concentration that inhibits 50% growth of cells. […] Following treatment with PCH-1, the viability of all the tested cancer cell lines decreased in a concentration-dependent manner.
The cell viability assay was performed for A-549, H226, H460, and HEK293 cells after treatment with the test compounds by using the 3-(4,5-dimethylthiazol-2-yl)-2,5-diphenyltetrazolium bromide (MTT, Sigma-Aldrich) assay. Briefly, cells were seeded onto 96-well culture plates for attachment. After 24 h, triplicate wells were treated with DMSO (1%) and the agents. After 72 h of incubation at 37 °C in 5% CO2, the MTT solution (0.4 mg/ml) was added to each well. After 2–4 h of incubation, the medium was removed, and the formazan crystals were dissolved in 100 μl of DMSO. The absorption was measured at 450 nm with an ASYS UVM340 microplate reader (Biochrom Ltd.). The 50% inhibitory concentration (IC50) was defined as the concentration that reduced the absorbance of the DMSO-treated wells by 50% of the vehicle. The IC50 values were generated from GraphPad Prism 9 software by plotting the survival curve as a function of dose from 3 independent experiments.

[1] = test system: A-549, H226, and H460 cells; assay: Cell cycle distribution by flow cytometry, unsynchronized cells; assay type: cell-based, human; conditions: IC90, 24 h, vs control
Protocol: (§1) Promising antiproliferative properties of PCH-1 led us to further investigate the effect of this compound on cell cycle distribution. Therefore, cell cycle progression was analyzed by quantifying DNA content using flow cytometry. […] To thoroughly analyze the course of the cycle, A-549 cells were synchronized with a double-thymidine block in the G1 phase and treated with IC90 concentration of PCH-1 for the indicated time. Slight alterations of the division cycle were visible after 2 h of incubation with the compound.
(§2) Cells were seeded onto tissue culture plates and allowed to attach for 24 h. Unsynchronized cells were treated with PCH-1 or Etoposide at IC90 concentration for 24 and 48 h, while synchronized cells were treated with PCH-1 or Etoposide at IC90 concentration for 2, 4, 6, 8, and 10 h. Synchronization of the cells was performed as described previously by Chen et al.[77]. Next, the cells were trypsinized, fixed in ice-cold 75% ethanol, and stored overnight at − 20 °C. After centrifugation, the cells were rinsed with PBS and stained with […] PI (Sigma-Aldrich) and […] RNaseA (Thermo Fisher) in PBS for 30 min at RT. The distribution of the cells in different phases of the cell cycle was determined by flow cytometry (Guava EasyCyte 8 cell sorter, Merck Millipore) and FlowJo software v10. Each experiment was repeated independently three times.

A-549 cells [2] = assay: Cell cycle distribution by flow cytometry, cells synchronized with double-thymidine block; assay type: cell-based, human; conditions: synchronized A-549, IC90, prolonged exposure (up to 10 h)
Protocol: as §1, §2

tubulin = assay: HTS-tubulin polymerization assay; assay type: biochemical; conditions: 120-min kinetic reaction, absorbance 340 nm, vs vehicle
Protocol: To further evaluate whether the tubulin–microtubule system was the target site of PCH-1, in vitro microtubule polymerization assays were performed using the microtubule protein with Paclitaxel and Vincristine as a reference. Paclitaxel and Vincristine are antimitotic drugs that have been commonly used in conventional chemotherapy for decades. In 1979, it was shown that Paclitaxel accelerates the initiation of tubulin fiber polymerization and stabilizes the formed tubulin fibers in vitro, even in the absence of GTP or MAP in the solution[30]. Vincristine, on the other hand, binds to tubulin and inhibits its polymerization.
The assay was performed according to the manufacturer’s instructions. Briefly, compounds were diluted in DMSO to a concentration of 2 mM and then in GTB buffer to a concentration of 50 µM. In the wells of a 96-well plate (UV transparent, half surface wells) previously heated to 37 °C, 10 µl of dilutions of the test compounds were placed in duplicate. The plate was incubated for 2 min at 37 °C, and 100 µl of freshly prepared tubulin solution (4 mg/ml) in GTB-GTP buffer was then added. The plate was immediately placed in a Tecan SPARK 10 M plate reader, and the reaction kinetics were measured with the following settings: absorbance reading: 340 nm, 37 °C, interval: 45 s, number of cycles: 160.

A-549 cells [3] = assay: Wound healing migration assay; assay type: cell-based, human
Protocol: To further confirm the antimigratory potential of PCH-1, the wound healing assay was performed on A-549 cells. […] This effect was retained during the entire exposure time, with the highest difference during 18–24 h compared to that in the control group. Finally, the anti-migratory properties of PCH-1 were studied by co-treatment A-549 cells with TGF-β1.
To analyze cell motility, A-549 cells were seeded onto the Ibidi-silicone insert on a cover glass-bottom 24-well plate for live cell imaging and incubated for 24 h. Subsequently, the inserts were dislodged, the cellular debris was removed by washing with RPMI, and the cells were incubated with different concentrations of PCH-1, and/or 2.5 ng/ml TGF-β1 (Sigma-Aldrich) in an imaging chamber (cellVivo incubation system, Olympus) at 37 °C with 5% CO2. Images were captured every 10 min for 20 or 42 h under × 10 magnification using a fluorescence microscope (IX83 Inverted Microscope, Olympus) connected to an XC50 digital color camera (Olympus). The percentage of wound closure was quantified with ImageJ software.

IC50 (H226 cells; Homo sapiens, NCI-H226, 72 h, MTT, read-out: IC50 ± SD, growth inhibition, H226): 4.69 ± 0.43 µM
Compound: COc1ccc(C2CC(c3cc4c(cc3OC)OCO4)=NN2C(C)=O)cc1 (stereo not shown) [PCH-1, 1-[3-(6-methoxy-2H-1,3-benzodioxol-5-yl)-5-(4-methoxyphenyl)-4,5-dihydro-1H-pyrazol-1-yl]ethan-1-one]
superior activity to the reference compound Cisplatin, H226 (H226 cells; 72 h IC50 ratio): ~3.7 fold
cell cycle arrest [1]: induced cell cycle arrest in the G2/M phase
increase in G2/M population as compared to control (A-549 cells [2]): 50.12%
effect on tubulin polymerization kinetics (tubulin): remarkably reduced the total mass of tubulin polymer
TGF-β1-induced cell motility (wound closure) (A-549 cells [3]; A-549 + 2.5 ng/ml TGF-β1, 5 µM and 10 µM, 20 h): the wound remained opened
cell migration (wound closure) (A-549 cells [3]; A-549, 10 and 15 µM): significantly reduced the migration of the cells
